Read-outs that look alike come from different tables or passages of the source.
Legend:
ENaC = target: T1, ENaC (Homo sapiens, UniProt P37088+P51168+P51170); assay: Short circuit current in T84 cells expressing ENaC; format: cell-based; conditions: 100 μM
T1 construct: endogenous in cells; host or cells: T84 cells, ENaC induced with 2 mM sodium butyrate for 2 days
T1 sequence (P37088 1-669): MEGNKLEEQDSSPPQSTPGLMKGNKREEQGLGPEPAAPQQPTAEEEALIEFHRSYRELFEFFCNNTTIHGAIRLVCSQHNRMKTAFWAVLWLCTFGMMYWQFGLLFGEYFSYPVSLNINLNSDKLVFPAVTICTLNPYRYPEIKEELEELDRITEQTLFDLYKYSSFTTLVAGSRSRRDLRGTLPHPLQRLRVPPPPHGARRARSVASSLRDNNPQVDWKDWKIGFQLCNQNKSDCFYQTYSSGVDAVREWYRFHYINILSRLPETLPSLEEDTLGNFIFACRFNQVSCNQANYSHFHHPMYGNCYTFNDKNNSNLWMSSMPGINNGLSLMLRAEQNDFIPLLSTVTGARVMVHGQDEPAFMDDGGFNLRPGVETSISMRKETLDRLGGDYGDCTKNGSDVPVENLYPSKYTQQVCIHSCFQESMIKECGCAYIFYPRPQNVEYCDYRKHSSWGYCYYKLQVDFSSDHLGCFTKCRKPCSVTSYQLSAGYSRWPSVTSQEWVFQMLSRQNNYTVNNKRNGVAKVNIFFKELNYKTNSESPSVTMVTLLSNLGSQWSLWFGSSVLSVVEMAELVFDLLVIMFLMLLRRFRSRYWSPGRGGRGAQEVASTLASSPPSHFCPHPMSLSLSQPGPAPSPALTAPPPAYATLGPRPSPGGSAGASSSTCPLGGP
T1 sequence (P51168 1-640): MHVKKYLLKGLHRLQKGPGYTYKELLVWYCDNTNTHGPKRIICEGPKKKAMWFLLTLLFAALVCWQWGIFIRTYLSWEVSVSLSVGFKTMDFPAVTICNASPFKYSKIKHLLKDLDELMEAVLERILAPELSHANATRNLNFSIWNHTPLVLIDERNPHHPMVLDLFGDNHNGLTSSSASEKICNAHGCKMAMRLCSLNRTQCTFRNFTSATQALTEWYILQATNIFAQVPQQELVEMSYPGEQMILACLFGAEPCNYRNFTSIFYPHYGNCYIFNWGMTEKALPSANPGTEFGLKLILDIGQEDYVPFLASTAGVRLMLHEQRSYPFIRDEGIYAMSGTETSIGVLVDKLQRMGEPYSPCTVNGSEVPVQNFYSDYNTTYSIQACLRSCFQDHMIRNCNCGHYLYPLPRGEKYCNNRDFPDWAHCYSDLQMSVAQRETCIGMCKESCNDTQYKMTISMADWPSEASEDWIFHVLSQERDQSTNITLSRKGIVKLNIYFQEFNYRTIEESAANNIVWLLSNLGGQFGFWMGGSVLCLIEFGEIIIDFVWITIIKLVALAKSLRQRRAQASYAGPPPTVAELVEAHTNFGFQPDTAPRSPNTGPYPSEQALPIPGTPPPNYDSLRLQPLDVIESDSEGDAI
T1 sequence (P51170 1-649): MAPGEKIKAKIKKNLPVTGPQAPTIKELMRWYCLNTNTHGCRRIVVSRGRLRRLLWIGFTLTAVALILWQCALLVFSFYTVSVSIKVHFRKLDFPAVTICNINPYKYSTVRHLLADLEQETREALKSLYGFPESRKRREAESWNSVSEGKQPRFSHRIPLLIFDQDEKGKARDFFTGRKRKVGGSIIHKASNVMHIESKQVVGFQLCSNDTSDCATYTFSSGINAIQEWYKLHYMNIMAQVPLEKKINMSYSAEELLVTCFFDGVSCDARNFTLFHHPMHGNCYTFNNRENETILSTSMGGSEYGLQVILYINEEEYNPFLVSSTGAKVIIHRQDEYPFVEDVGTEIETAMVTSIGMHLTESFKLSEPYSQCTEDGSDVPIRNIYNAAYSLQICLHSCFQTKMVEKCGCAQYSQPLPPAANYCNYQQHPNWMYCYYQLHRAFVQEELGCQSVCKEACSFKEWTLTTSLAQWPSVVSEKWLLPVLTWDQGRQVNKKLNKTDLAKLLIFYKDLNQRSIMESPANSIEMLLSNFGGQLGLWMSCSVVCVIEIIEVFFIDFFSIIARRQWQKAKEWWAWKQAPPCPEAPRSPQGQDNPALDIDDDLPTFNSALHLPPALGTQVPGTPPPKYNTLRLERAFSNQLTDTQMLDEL
Description: Snapwell inserts containing ANO1, ANO2 or CFTR expressing FRT cells, ENaC expressing T-84 cells or the human primary airway epithelial cells were mounted in Ussing chambers (Physiologic Instruments, San Diego, CA). To induce transcriptional ENaC induction, the polarized T84 cells were incubated with 2 mM sodium butyrate for 2 days. To increase the functional expression of ANO1, the human airway epithelial cells were treated with IL-4 (10 ng/mL) for 2 days. For T-84 and the human primary airway epithelial cells, the apical and basolateral bath were filled with HCO3^—buffered solution containing (in mM): 120 NaCl, 5 KCl, 1 MgCl2, 1 CaCl2, 10 D-glucose, 2.5 HEPES, and 25 NaHCO3 (pH 7.4). For FRT cells, the basolateral bath was filled with the HCO3^—buffered solution and the apical bath was filled with a half-Cl^- solution. In the half-Cl^- solution 65 mM NaCl in the HCO3^—buffered solution was replaced by Na-gluconate. […] ATP was applied to the apical bath solution to induce intracellular calcium increase. […] Apical membrane currents were measured with an EVC4000 Multi-Channel V/I Clamp (World Precision Instruments, Sarasota, FL) and PowerLab 4/35 (AD Instruments, Castle Hill, Australia). Data were analyzed using Labchart Pro 7 (AD Instruments). The sampling rate was 4 Hz.
ANO1 was activated by either 10 μM Eact, an ANO1 activator, or 100 μM ATP.

VRAC [1] = assay: VRAC activity by YFP quenching in LN215 cells; format: cell-based, human; conditions: 10 μM
Description: LN215 cells, a human glioma cell line, were stably transfected with YFP-F46L/H148Q/I152L, a halide sensor YFP. After the cells were incubated on 96well black plates (Corning Inc., Corning, NY) for 48 hours, each well of the 96-well plate was washed 3 times in PBS (200 μL/wash), and the wells were filled with 50 μl/well isotonic solution (in mM): 140 NaCl, 5 KCl, 20 HEPES (310 mOsm/kg; pH 7.4 with NaOH). In each well, VRAC expressed on the cells were stimulated with addition of 50 μl of hypotonic solutions (in mM): 5 KCl, 20 HEPES, 90 mannitol (120 mOsm/kg). Test compounds (1 μL) were added to each well in a dose dependent manner. After 5 min, 96-well plates were transferred to a plate reader for fluorescence assay. Each well was assayed individually for VRAC-mediated I^- influx by recording fluorescence continuously (400 ms per point) for 7.6 s. YFP fluorescence was recorded 0.4 s for baseline, then 100 μL of 140 mM I^- solution was added at 0.4 s to see the change in fluorescence. Initial iodide influx rate was determined from the initial slope of fluorescence decrease, by nonlinear regression, following infusion of iodide.

VRAC [2] = assay: Whole-cell patch clamp of hypotonicity-induced VRAC currents in LN215 cells; format: cell-based, human; conditions: 10 μM
Source text: Pipettes were pulled from borosilicate glass and had resistances of 3–5 MΩ after fire polishing. […] The liquid junction potential (~2.4 mV) was not corrected. After establishing the whole-cell configuration, whole-cell capacitance and series resistance were compensated with the amplifier circuitry. […] VRAC was activated by exposing LN215 cells to a 25% hypotonic bath solution.

VRAC [3] = tested on: VRAC; set-up: method as in PMID 24965069, PMID 25163766, PMID 26438191; conditions: ref [26]–[28]; cited from earlier work
ANO2 = tested on: ANO2; set-up: method as in PMID 22526416; conditions: ref [38]; cited from earlier work
ANO1 = tested on: ANO1; set-up: method as in PMID 22526416; conditions: ref [38]; cited from earlier work

Row | SMILES | inhibition of ANO2 (ANO2) | inhibition of ANO1 (ANO1) | further results
1 | N=C(N)NC(=O)c1nc(Cl)c(N)nc1N [amiloride] | – | – | effect on ENaC channel activity (ENaC): fully blocked
2 | CCCCC1(C2CCCC2)Cc2cc(OCCCC(=O)O)c(Cl)c(Cl)c2C1=O (centres unmarked) [DCPIB] | – | – | block of VRAC activity (VRAC [1]): completely blocked; effect on hypotonicity-induced VRAC currents (VRAC [2]): almost completely blocked
3 | O=C(O)c1cc([N+](=O)[O-])ccc1NCCCc1ccccc1 [NPPB, 5-nitro-2-(3-phenylpropylamino)-benzoic acid] | inhibited | inhibited | block of VRAC activity (VRAC [3]): potently blocked
4 | O=C(O)c1cccnc1Nc1cccc(C(F)(F)F)c1 [niflumic acid] | inhibited | inhibited | –

Reference: paper PMC4878759 (PLoS ONE, 2016)
